Measurements: US20230118142A1, “AGENTS FOR USE IN THE TREATMENT OF TISSUE DAMAGE” (UCL BUSINESS LTD, priority 2020, published 2023)

Key:
CRP [1] = target: T1, CRP (Homo sapiens, UniProt P02741); assay: Stability of pre-formed CRP/ligand complexes in vitro (mouse plasma, whole blood, shear forces, dialysis); parameters: from tissue
T1 sequence (P02741 19-224): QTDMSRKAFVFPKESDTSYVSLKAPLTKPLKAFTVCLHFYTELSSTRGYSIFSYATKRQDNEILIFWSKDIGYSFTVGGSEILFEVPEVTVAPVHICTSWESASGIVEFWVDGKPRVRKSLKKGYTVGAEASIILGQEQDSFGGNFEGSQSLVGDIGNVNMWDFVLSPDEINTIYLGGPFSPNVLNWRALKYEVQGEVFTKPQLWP
Method: Pre-formed complexes of CRP/Pk-023 (with 5-fold molar excess of ligand over CRP pentamer), or CRP alone, were co-incubated, unstirred, in TC buffer (control), fresh mouse heparinised plasma or fresh heparinised whole mouse blood at 37° C. for up to 3 hours. CRP concentrations in plasma were then measured by Roche immunoassay. […] On addition of EDTA to dissociate CRP ligand binding, Roche CRP concentrations in all CRP/Pk-023 samples recovered to ˜70% of control values showing that the protein was still present and immunoreactive.
To determine whether shear forces might have an effect on stability, pre-formed CRP/Pk-023 complexes prepared with either a 2.5- or 5-fold molar excess of ligand were added to heparinised mouse plasma and stirred rapidly at room temperature for 3 h.
CRP/Pk-023 complexes formed at 5-fold ligand excess were stable during exhaustive dialysis against TC buffer for up to 96 h at room temperature, as shown by the Roche CRP assay values. After 30 h, ˜8% of the complex had dissociated, with a further 2.5% dissociation at 96 h. Similarly, CRP/Pk-023 complexes pre-formed in serum were stable during dialysis against TC buffer for 24 h at room temperature with shear forces produced by a magnetic stir bar inserted into the dialysis tubing. ^125I-CRP was included to correct for dilution account for any effects of dilution.

CRP [2] = target: T1, CRP; assay: Immobilised phosphocholine plate assay (125I-CRP binding); parameters: The final concentrations were 0.73 μM native pentameric CRP; from tissue; conditions: read-out: IC50 for inhibition of 125I-CRP binding to immobilised phosphocholine
Method: (i) Phosphocholine was immobilised on Greiner NHS-activated microtitre plates by incubation with 4-aminophenyl-1-phosphocholine. Remaining active sites were blocked by incubation with 4% w/v BSA in TC buffer (TCB).
(ii) Human CRP at 1 μg/ml in TC buffer was spiked with ^125I-labelled CRP to provide 10^6 cpm/ml.
(iii) Compounds were prepared from up to 10 mM stock solutions by dilution in TC buffer to 0.5 mM (labelled S1). Serial dilutions were prepared by diluting 100 μl ligand solution with 200 μl TC buffer (S2-S10). A ligand-free control was also used (SO, TC only).
(iv) A 100 μl volume of CRP solution was incubated with 10 μl of each compound (S1-S10, SO) for 1 h at room temperature without stirring, to provide final ligand concentrations across the range 45.5 μM-6.9 nM with a ligand:CRP monomer molar ratio of 1151-0.06. In some cases, single fixed ligand concentrations were also assayed in comparison with PC.
(v) A 100 μl volume of each CRP-ligand mixture was added to the plate wells and incubated for 2 h at room temperature. Solutions were then discarded and the plates washed with TCB buffer. Bound radioactivity was measured (1 min counts) using a gamma counter (Perkin Elmer Wizard 2470).
(vi) Data were plotted with Sigmaplot v14 software using the 4-parameter logistic curve y=min+(max−min)/(1+(x/EC50)^−Hill slope) to calculate IC50.

CRP [3] = target: T1, CRP; assay: Size exclusion chromatography of CRP/ligand cross linking; assay type: binding; parameters: The final concentrations were 0.73 μM native pentameric CRP; from tissue
[4] = In vivo clearance of ligand; conditions: male, C57BL/6, mouse, plasma, 0.5 mg; mice, intravenous; read-out: plasma t1/2 of ligand
Method: (i) Ligand (0.5 mg/animal) dissolved in PBS or saline (200 μl) was injected intravenously into the tail vein of six male; 23-27 week old wild-type C57BL/6 mice. Up to two blood samples plus a terminal sample per mouse were collected at each time point up to 180 minutes.
(ii) Serum was prepared and ˜200 ng of internal standard (either ^2H4-BPC6 or BPC9) added. Serum proteins were precipitated with 4 volumes of either ice cold methanol or acetonitrile. The supernatant was dried under vacuum and re-dissolved in 0.1% v/v aqueous formic acid. (iii) Samples were chromatographed on a Phenomenex Aqua column using a gradient of 0.1% v/v formic acid-60% v/v acetonitrile in formic acid, and the eluate passed into the positive ion source of a Quattro II triple quadrupole mass spectrometer. The MRM transitions used were m/z 449.3→390.2 and 453.→394.2 (BPC6) and m/z 477.3→418.3, […] (BPC8).
(iv) Ligand concentrations were measured against an extracted standard curve and were plotted using Sigmaplot (v14) and fitted to a 2-parameter exponential decay.

SMILES: O=P(O)(OCCCCCCCCOP(=O)(O)O[C@@H]1CN2CCC1CC2)O[C@@H]1CN2CCC1CC2 [Pk-023, [(3S)-1-azabicyclo[2.2.2]octan-3-yloxy]({[8-({[(3S)-1-azabicyclo[2.2.2]octan-3-yloxy](hydroxy)phosphoryl}oxy)octyl]oxy})phosphinic acid]
- Stability of complex to shear forces (Roche CRP reactivity) (CRP [1]; 2.5- or 5-fold ligand excess, heparinised mouse plasma, stirred rapidly, room temperature, 3 h): stable throughout the experiment
- Complex dissociated during dialysis against TC buffer (CRP [1]; 5-fold ligand excess, room temperature, after 30 h): ~8%
- Stability of pre-formed CRP/ligand complex (Roche CRP) (CRP [1]; 5-fold ligand excess, TC buffer, mouse heparinised plasma or whole mouse blood, 37° C., up to 3 hours): stable throughout the experiment
- Roche CRP concentration recovered on addition of EDTA (CRP [1]; after incubation in mouse plasma/whole blood): ~70 % of control values
- Further dissociation of complex during dialysis (CRP [1]; at 96 h): 2.5%
- Stability of complexes pre-formed in serum during dialysis (CRP [1]; dialysis against TC buffer 24 h, room temperature, with shear forces): stable
- IC50 (CRP [2]): 150 nM
- Stable to rechromatography (CRP [3]; CRP/ligand complex re-chromatographed in absence of free ligand): remained intact and Yes
- CRP elution volume from Superdex 200 after pre-incubation with ligand (CRP [3]; native CRP pentamer elutes at 13.9 ml): 12.6 mL
- half-life [4]: ~15 min
